Experimental data reported in PMC3703823 (Clinical cancer research : an official journal of the …, 2011).
≈ marks a conversion by molar mass, not a printed value.

Tests used:
In vitro solubility = type: physicochemical
[1] = tested on: alpha-1-acid glycoprotein (AAG); assay: SPR-based biosensor; type: binding; details: human
clinical = details: human, plasma, po
human hepatocytes = details: in vitro; cited from earlier work
[2] = across animal species; cited from earlier work
AAG = details: cited from earlier work

| Compound | solubility (In vitro solubility; pH 0.1) | solubility (In vitro solubility; pH 6.5) | Kd [1] | half-life (clinical) | AUC(0-t) (clinical; 150 mg) | Cmax (clinical; 150 mg) | AUC(0-t) (clinical; 270 mg) | Cmax (clinical; 270 mg) | AUC(0-t) (clinical; 540 mg) | Cmax (clinical; 540 mg) | Compound remaining intact following coincubations with human hepatocytes (human hepatocytes) | Oral bioavailability [2] | KD for AAG (corresponding to reported KA) (AAG) |
| --- | --- | --- | --- | --- | --- | --- | --- | --- | --- | --- | --- | --- | --- |
| CS(=O)(=O)c1ccc(C(=O)Nc2ccc(Cl)c(-c3ccccn3)c2)c(Cl)c1 [GDC-0449, 2-chloro-N-[4-chloro-3-(pyridin-2-yl)phenyl]-4-[methylsulfonyl]benzamide] | 990 µg/mL (≈ 2350 µM) | 0.1 µg/mL (≈ 0.237 µM) | 13 µM | > 168 h | 322 ± 185 µM·h | 3.58 ± 1.34 µM | 839 ± 458 µM·h | 6.34 ± 3.4 µM | 1010 µM·h | 6.81 ± 2.69 µM | ~100% | good | – |
| CN[C@@H]1C[C@H]2O[C@@](C)([C@@H]1OC)n1c3ccccc3c3c4c(c5c6ccccc6n2c5c31)C(=O)N[C@H]4O [UCN-01] | – | – | – | – | – | – | – | – | – | – | – | – | 0.00125 µM |
